From PubChem BioAssay (NCI)
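How tested: cells in 96-well plates exposed to compound for 48 hours at five concentrations. GI50: concentration for 50% inhibition of growth. TGI denotes the concentration required for complete inhibition of growth.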

Experiments:
Experiment in all cases: NCI-60 cell line screen, 48 h
MOLT-4 leukemia = tested on: MOLT-4 leukemia
U251 CNS = tested on: U251 CNS
HT29 colon = tested on: HT29 colon
A498 renal = tested on: A498 renal
OVCAR-3 ovarian = tested on: OVCAR-3 ovarian
HOP-92 NSCLC = tested on: HOP-92 NSCLC
SK-MEL-2 melanoma = tested on: SK-MEL-2 melanoma
SW-620 colon = tested on: SW-620 colon
SF-295 CNS = tested on: SF-295 CNS
HCT-15 colon = tested on: HCT-15 colon

Row | Compound | GI50 (MOLT-4 leukemia) | TGI (MOLT-4 leukemia) | GI50 (U251 CNS) | TGI (U251 CNS) | GI50 (HT29 colon) | TGI (HT29 colon) | GI50 (A498 renal) | TGI (A498 renal) | GI50 (OVCAR-3 ovarian) | TGI (OVCAR-3 ovarian) | GI50 (HOP-92 NSCLC) | TGI (HOP-92 NSCLC) | GI50 (SK-MEL-2 melanoma) | TGI (SK-MEL-2 melanoma) | GI50 (SW-620 colon) | TGI (SW-620 colon) | GI50 (SF-295 CNS) | TGI (SF-295 CNS) | GI50 (HCT-15 colon) | TGI (HCT-15 colon)
1 | Cc1cc([C@@H](C)Nc2ccccc2C(=O)O)c2nc(N3CCOCC3)cc(=O)n2c1 | 5.42 µM | > 10 µM | > 10 µM | > 10 µM | > 10 µM | > 10 µM | 0.0166 µM | 0.0945 µM | 6.02 µM | > 10 µM | 0.175 µM | 6.08 µM | > 10 µM | > 10 µM | > 10 µM | > 10 µM | 1.85 µM | > 10 µM | > 10 µM | > 10 µM
2 | CCCCCCCCCCCCC(=O)OC(c1cnco1)c1nc(C(O)CC(O)C(O)C(C)O)co1 (stereo not drawn) | 0.537 µM | 5.14 µM | 0.72 µM | > 62.8 µM | 1.1 µM | > 100 µM |  | > 100 µM | 4.61 µM | > 100 µM | 1.62 µM | > 100 µM | 4.79 µM | > 66 µM | 0.566 µM | > 62.7 µM | 1.52 µM | 98.3 µM |  | > 100 µM
3 | CN=C(N)N/N=C(\c1ccccc1)c1ccc(Br)cc1 | 0.362 µM | 7.3 µM | 0.375 µM | 2.63 µM | 0.322 µM | 1.72 µM | 0.232 µM | 1.01 µM | 0.29 µM | 2.55 µM | 0.3 µM | 2.9 µM | 0.359 µM | 1.97 µM | 0.417 µM | 16.3 µM | 0.287 µM | 1.48 µM | 0.306 µM | 7.24 µM
4 | NC(N)=N/N=C(/c1ccccc1)c1ccc(F)cc1 | 2.67 µM | > 38.1 µM | 0.337 µM | 5.21 µM | 0.3 µM | 2.63 µM | 0.299 µM | 3.28 µM | 0.227 µM | 0.621 µM | 0.984 µM | 31.4 µM | 0.429 µM | 11.3 µM | 0.376 µM | 19.3 µM | 0.243 µM | 2.25 µM | 0.4 µM | 13.4 µM
5 | N#Cc1c(NC(=O)c2cccc(C(F)(F)F)c2)sc2c1CCC(=O)C2 | 0.35 µM | > 32.2 µM | 0.352 µM | 1.58 µM | 0.367 µM | 2.47 µM | 1.71 µM | 5.5 µM | 0.418 µM | 1.52 µM | 1.02 µM | 3.06 µM | 2.3 µM | 6.35 µM | 0.3 µM | 1.83 µM | 0.845 µM | 3.88 µM | 0.337 µM | 1.66 µM
6 | COc1cc(-n2cc(-c3ccc(Cl)c(Cl)c3)nc2SCc2ccccc2)cc(OC)c1OC | 55.9 µM | > 100 µM | > 100 µM | > 100 µM | > 100 µM | > 100 µM | > 100 µM | > 100 µM | > 100 µM | > 100 µM | > 100 µM | > 100 µM | > 100 µM | > 100 µM | > 100 µM | > 100 µM | > 100 µM | > 100 µM | > 100 µM | > 100 µM
7 | COc1cc(C(=O)NC2c3ccccc3-c3ccccc32)c(N)cc1OCc1ccccc1 | > 78.4 µM | > 100 µM | 14.4 µM | 34.7 µM | 69.7 µM | > 100 µM | 37 µM | > 100 µM | 24.2 µM | > 87.3 µM | 14.2 µM | 33.6 µM | 33.7 µM | 98.9 µM | 66.4 µM | > 100 µM | 15.4 µM | 41 µM | > 74.8 µM | > 100 µM
8 | O=C(Nc1nc2ccccc2s1)OCC(F)(F)F | > 100 µM | > 100 µM | > 100 µM | > 100 µM | > 100 µM | > 100 µM | > 100 µM | > 100 µM | > 100 µM | > 100 µM | 41.2 µM | > 100 µM | > 100 µM | > 100 µM | > 100 µM | > 100 µM | > 100 µM | > 100 µM | > 100 µM | > 100 µM
